This assay has as its system human isolated detrusor muscle. Briefly: Relaxation of U46619-induced plateau of contraction in human isolated detrusor muscle strips (organ bath). The note with it: for Emax at 100 µM / EC50: Homo sapiens; for Emax at 100 µM: at the concentration of 100 µM, percent relaxation of 1 µM U46619 plateau, 10 µM forskolin taken as 100% relaxation, read-out: maximal relaxant effect (Emax); for EC50: mean, relaxation of plateau of contraction induced by 1 µM U46619 after priming with 0.1 µM forskolin, CRC 0.03 - 100 µM, non linear regression fit, read-out: pEC50 (-log EC50) (converted). The procedure:
The detrusor muscle was separated from mucosa and adventitia and cut into small strips which were mounted, under 1 g initial tension, in 5 mL glass organ baths containing oxygenated Krebs-Henseleit solution (composition in mM: NaCl 114, KCl 4.7, CaCl2 2.5, MgS04 1.2, KH2PO4 1.2, NaHCO3 25, glucose 11.7) kept at 37°C. Tissues were allowed to equilibrate for at least 60 minutes during which time the Krebs solution was replaced every 15 min. After the stabilization period, a reference contraction to 80 mM KCl was performed on each strip. Tissues having a contraction less than 1 g were discarded. After wash-outs and a further 45 min of re-equilibration, during which the resting tension was adjusted periodically, each strip was primed with 0.1 µM forskolin, an adenylyl cyclise activator, for 10 min then recontracted with 1 µM U46619 for at least 20 min, until a stable plateau of contraction was obtained. Strips having a plateau of contraction less than 0.2 g were discarded. After obtaining a stable plateau of contraction, concentration-responses curves (CRC) to drotaverine and rolipram (0.03 - 100 µM) or the common vehicle (DMSO from 0.003 to 1 % in the organ bath) were performed. At the end of the CRC, the maximal relaxant effect for each strip was determined following application of 10 µM forskolin into the organ baths. Only one CRC to each substance or solvent was tested in a single strip. CRCs were constructed using 8 bladder strips from 4 different patients. Results were expressed as percent relaxation of the plateau of contraction induced by 1 µM U46619, with respect to the maximal effect obtained with 10 µM forskolin taken as 100% relaxation.
All CRCs were fitted by non linear regressions using the software GraphPad Prism® version 4.0 to obtain the following parameters: Emax: Maximal relaxation induced by the tested substance; EC50: the concentration which induces 50% of the maximum effect, expressed as pEC50 (-log EC50). Comparisons of the CRCs were performed with two-way analysis of variance (ANOVA) statistical analysis test and Bonferroni post-test. All differences will be considered statistically significant when the null hypothesis can be rejected at a risk α of less than 0.05.

As for `CCOc1ccc(C=C2NCCc3cc(OCC)c(OCC)cc32)cc1OCC` [drotaverine, 1-[(3,4-diethoxyphenyl)methylene]-6,7-diethoxy-1,2,3,4-tetrahydro-isoquinoline], the Emax (commonly the maximal effect, on the per cent scale that the assay sets) at 100 µM was determined as 80.8 ± 3.07% and the EC50 (commonly the concentration needed to bring the measured effect to its halfway point) was 32.4 µM. The “relaxation of U46619-contracted detrusor strips” value (from 0.03 to 10 µM) is “slight relaxation”. Further, the “relaxation of U46619-induced detrusor muscle contraction” value (from 30 to 100 µM) is listed as “significant concentration-dependent relaxation”.
For the compound `COc1ccc(C2CNC(=O)C2)cc1OC1CCCC1` (stereo not shown) [rolipram], the Emax at 100 µM came out at 89.5 ± 2.68% and the concentration giving a half-maximal response (EC50) is 0.151 µM. Further, the “relaxation of U46619-induced human detrusor contraction” value (from 0.03 to 100 µM) was “significant concentration-dependent relaxation”.

These data come from patent publication EP2156835A1, “New therapeutic use of drotaverine” (Sanofi-Aventis, priority 2008, dated 2010).
